Experimental data: PubChem BioAssay AID2060603 (Molecular Pharmacology Branch, DTP, NCI, 2025)
Several values for one entry are separate records, joined by “and”; a condition that tells them apart may be missing. Equal entries are not always repeated.

Test system: 422866-222-R5-J1-PDC spheroid viability
Experiment: Anticancer human tumor 422866-222-R5-J1-PDC patient-derived pancreatic adenocarcinoma cell line growth inhibition [CLK]
Conditions: spheroids with HUVEC and MSC; for viability, T/C: stronger effect = lower value; active = viability on the fitted dose curve at most 10% of control; inactive = the rest
Summary of the method: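 Multi-cell-type spheroids combined patient-derived tumor cells with HUVEC endothelial cells and human mesenchymal stem cells. Paired agents were dosed in half-log steps down from about clinical Cmax, or from 10 microM where Cmax was unknown.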

[1] = curve of first compound, second compound 0.0316 µM
[2] = curve of first compound, second compound 0.1 µM
[3] = curve of first compound, second compound 0.316 µM
[4] = curve of first compound, second compound 1 µM
[5] = curve of first compound, second compound 3.16 µM
[6] = curve of first compound, second compound 10 µM
[7] = second compound 0.0316 µM, first compound 0.00316 µM
[8] = second compound 0.0316 µM, first compound 0.01 µM
[9] = second compound 0.0316 µM, first compound 0.0316 µM
[10] = second compound 0.0316 µM, first compound 0.1 µM
[11] = second compound 0.0316 µM, first compound 0.316 µM
[12] = second compound 0.0316 µM, first compound 1 µM
[13] = second compound 0.1 µM, first compound 0.00316 µM
[14] = second compound 0.1 µM, first compound 0.01 µM
[15] = second compound 0.1 µM, first compound 0.0316 µM
[16] = second compound 0.1 µM, first compound 0.1 µM
[17] = second compound 0.1 µM, first compound 0.316 µM
[18] = second compound 0.1 µM, first compound 1 µM
[19] = second compound 0.316 µM, first compound 0.00316 µM
[20] = second compound 0.316 µM, first compound 0.01 µM
[21] = second compound 0.316 µM, first compound 0.0316 µM
[22] = second compound 0.316 µM, first compound 0.1 µM
[23] = second compound 0.316 µM, first compound 0.316 µM
[24] = second compound 0.316 µM, first compound 1 µM
[25] = second compound 1 µM, first compound 0.00316 µM
[26] = second compound 1 µM, first compound 0.01 µM
[27] = second compound 1 µM, first compound 0.0316 µM
[28] = second compound 1 µM, first compound 0.1 µM
[29] = second compound 1 µM, first compound 0.316 µM
[30] = second compound 1 µM, first compound 1 µM
[31] = second compound 3.16 µM, first compound 0.00316 µM
[32] = second compound 3.16 µM, first compound 0.01 µM
[33] = second compound 3.16 µM, first compound 0.0316 µM
[34] = second compound 3.16 µM, first compound 0.1 µM
[35] = second compound 3.16 µM, first compound 0.316 µM
[36] = second compound 3.16 µM, first compound 1 µM
[37] = second compound 10 µM, first compound 0.00316 µM
[38] = second compound 10 µM, first compound 0.01 µM
[39] = second compound 10 µM, first compound 0.0316 µM
[40] = second compound 10 µM, first compound 0.1 µM
[41] = second compound 10 µM, first compound 0.316 µM
[42] = second compound 10 µM, first compound 1 µM
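Note: spheroids exposed to agents for seven days before readout.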

COc1c(OCCCN2CCOCC2)ccc2c3n(c(=NC(=O)c4cnc(N)nc4)nc12)CCN3 + CNC(=O)c1ccc(Nc2nc(OC3CCCC3)c3c(-c4ccc5nc(C)oc5c4)c[nH]c3n2)c(OC)c1
8.5 nM: IC50 [5]
11.9 nM: IC50 [1]
inactive: viability, T/C [7] 83.3% | viability, T/C [8] 51.5% | viability, T/C [9] 39.9% | viability, T/C [10] 26.8% | viability, T/C [11] 28.4% | viability, T/C [12] 30.3% | viability, T/C [13] 72.2% | viability, T/C [14] 60% | viability, T/C [15] 37.7% | viability, T/C [16] 32.1% | viability, T/C [17] 26.7% | viability, T/C [18] 33.4% | viability, T/C [19] 62.8% | viability, T/C [20] 53.6% | viability, T/C [21] 29.5% | viability, T/C [22] 23.9% | viability, T/C [23] 25.7% | viability, T/C [24] 32.9% | viability, T/C [25] 50.1% | viability, T/C [26] 47.1% | viability, T/C [27] 33.5% | viability, T/C [28] 27.6% | viability, T/C [29] 25.9% | viability, T/C [30] 36.8% | viability, T/C [31] 57.6% | viability, T/C [32] 48.7% | viability, T/C [33] 31.9% | viability, T/C [34] 25.4% | viability, T/C [35] 28.6% | viability, T/C [36] 36.1% | viability, T/C [37] 47.2% | viability, T/C [38] 43.3% | viability, T/C [39] 35.5% | viability, T/C [40] 28% | viability, T/C [41] 33.5% | viability, T/C [42] 36.1%
16.8 nM: IC50 [2]
< 3.16 nM: IC50 [4] | IC50 [6]
11.8 nM: IC50 [3]

Nc1ccccc1NC(=O)c1ccc(CNC(=O)OCc2cccnc2)cc1
inactive: viability, T/C (compound 0.0316 µM) 102% and 93.7% | viability, T/C (compound 0.1 µM) 129% and 108% | viability, T/C (compound 0.316 µM) 144% and 139% | viability, T/C (compound 1 µM) 106% and 104% | viability, T/C (compound 3.16 µM) 78.5% and 92.5% | viability, T/C (compound 10 µM) 86.9% and 81.8%
> 10000 nM: IC50 (curve of compound)

CCc1c2c(nc3ccc(O)cc13)-c1cc3c(c(=O)n1C2)COC(=O)[C@]3(O)CC + CN1CCN(c2cc(C(=O)Nc3cc4cc(-c5cnn(C)c5)ccc4cn3)ccn2)CC1
active: viability, T/C [31] 6.01% | viability, T/C [32] 8.18% | viability, T/C [37] 1.14% | viability, T/C [38] 0.8% | viability, T/C [39] 2.73% | viability, T/C [40] 2.68% | viability, T/C [41] 4.83% | viability, T/C [42] 5.54%
< 3.16 nM: IC50 [1] | IC50 [3] | IC50 [4] | IC50 [5] | IC50 [6]
inactive: viability, T/C [7] 49.4% | viability, T/C [8] 41.2% | viability, T/C [9] 37.6% | viability, T/C [10] 37.1% | viability, T/C [11] 27.9% | viability, T/C [12] 20.3% | viability, T/C [13] 54% | viability, T/C [14] 42.3% | viability, T/C [15] 34.8% | viability, T/C [16] 40% | viability, T/C [17] 24.7% | viability, T/C [18] 24.3% | viability, T/C [19] 52.9% | viability, T/C [20] 44.1% | viability, T/C [21] 45.7% | viability, T/C [22] 31.9% | viability, T/C [23] 24.2% | viability, T/C [24] 25.2% | viability, T/C [25] 12.3% | viability, T/C [26] 12.7% | viability, T/C [27] 12.4% | viability, T/C [28] 14.1% | viability, T/C [29] 30.5% | viability, T/C [30] 24.3% | viability, T/C [33] 12.9% | viability, T/C [34] 19% | viability, T/C [35] 25.1% | viability, T/C [36] 31.6%
4.48 nM: IC50 [2]

C=CC(=O)N1CCN(c2nc(=O)n(-c3c(C)ccnc3C(C)C)c3nc(-c4c(O)cccc4F)c(F)cc23)C(C)C1 (stereo not drawn) + CN1CCN(c2cc(C(=O)Nc3cc4cc(-c5cnn(C)c5)ccc4cn3)ccn2)CC1
< 31.6 nM: IC50 [1] | IC50 [2] | IC50 [3] | IC50 [4] | IC50 [5] | IC50 [6]
active: viability, T/C [33] 4.94% | viability, T/C [34] 5.81% | viability, T/C [35] 5.39% | viability, T/C [36] 6.54% | viability, T/C (second compound 3.16 µM, first compound 3.16 µM) 6.25% | viability, T/C (second compound 3.16 µM, first compound 10 µM) 7.04% | viability, T/C [39] 0.98% | viability, T/C [40] 0.81% | viability, T/C [41] 0.76% | viability, T/C [42] 0.79% | viability, T/C (second compound 10 µM, first compound 3.16 µM) 0.84% | viability, T/C (second compound 10 µM, first compound 10 µM) 2.58%
inactive: viability, T/C [9] 44.6% | viability, T/C [10] 30.4% | viability, T/C [11] 40.1% | viability, T/C [12] 30.5% | viability, T/C (second compound 0.0316 µM, first compound 3.16 µM) 29% | viability, T/C (second compound 0.0316 µM, first compound 10 µM) 35.3% | viability, T/C [15] 46.9% | viability, T/C [16] 38.4% | viability, T/C [17] 36.6% | viability, T/C [18] 38.7% | viability, T/C (second compound 0.1 µM, first compound 3.16 µM) 35.1% | viability, T/C (second compound 0.1 µM, first compound 10 µM) 38.5% | viability, T/C [21] 42.7% | viability, T/C [22] 35.4% | viability, T/C [23] 29.9% | viability, T/C [24] 32.2% | viability, T/C (second compound 0.316 µM, first compound 3.16 µM) 33.9% | viability, T/C (second compound 0.316 µM, first compound 10 µM) 28.5% | viability, T/C [27] 20.9% | viability, T/C [28] 21.5% | viability, T/C [29] 21.2% | viability, T/C [30] 20.8% | viability, T/C (second compound 1 µM, first compound 3.16 µM) 17.6% | viability, T/C (second compound 1 µM, first compound 10 µM) 8.28%
